Activity calls are given as the source filed them. How the calls were made is not given here.
Test system: CCRIS mutagenicity, Ames/micronucleus/aberration tests
Experiment: CCRIS mutagenicity studies
[1] = Test System: AMES SALMONELLA TYPHIMURIUM, Strain/Indicator: TA98, Metabolic Activation: HAMSTER, LIVER, S-9, AROCLOR 1254, Method: STANDARD PLATE
[2] = Test System: AMES SALMONELLA TYPHIMURIUM, Strain/Indicator: TA98, Metabolic Activation: NONE, Method: STANDARD PLATE
[3] = Test System: AMES SALMONELLA TYPHIMURIUM, Strain/Indicator: TA98, Metabolic Activation: RAT, LIVER, S-9, AROCLOR 1254, Method: STANDARD PLATE
[4] = Test System: AMES SALMONELLA TYPHIMURIUM, Strain/Indicator: TA100, Metabolic Activation: HAMSTER, LIVER, S-9, AROCLOR 1254, Method: STANDARD PLATE
[5] = Test System: AMES SALMONELLA TYPHIMURIUM, Strain/Indicator: TA100, Metabolic Activation: NONE, Method: STANDARD PLATE
[6] = Test System: AMES SALMONELLA TYPHIMURIUM, Strain/Indicator: TA100, Metabolic Activation: RAT, LIVER, S-9, AROCLOR 1254, Method: STANDARD PLATE
[7] = Test System: AMES SALMONELLA TYPHIMURIUM, Strain/Indicator: TA1535, Metabolic Activation: HAMSTER, LIVER, S-9, AROCLOR 1254, Method: STANDARD PLATE
[8] = Test System: AMES SALMONELLA TYPHIMURIUM, Strain/Indicator: TA1535, Metabolic Activation: NONE, Method: STANDARD PLATE
[9] = Test System: AMES SALMONELLA TYPHIMURIUM, Strain/Indicator: TA1535, Metabolic Activation: RAT, LIVER, S-9, AROCLOR 1254, Method: STANDARD PLATE
[10] = Test System: AMES SALMONELLA TYPHIMURIUM, Strain/Indicator: TA1537, Metabolic Activation: HAMSTER, LIVER, S-9, AROCLOR 1254, Method: STANDARD PLATE
[11] = Test System: AMES SALMONELLA TYPHIMURIUM, Strain/Indicator: TA1537, Metabolic Activation: NONE, Method: STANDARD PLATE
[12] = Test System: AMES SALMONELLA TYPHIMURIUM, Strain/Indicator: TA1537, Metabolic Activation: RAT, LIVER, S-9, AROCLOR 1254, Method: STANDARD PLATE
[13] = Test System: AMES SALMONELLA TYPHIMURIUM, Strain/Indicator: TA1538, Metabolic Activation: HAMSTER, LIVER, S-9, AROCLOR 1254, Method: STANDARD PLATE
[14] = Test System: AMES SALMONELLA TYPHIMURIUM, Strain/Indicator: TA1538, Metabolic Activation: NONE, Method: STANDARD PLATE
[15] = Test System: AMES SALMONELLA TYPHIMURIUM, Strain/Indicator: TA1538, Metabolic Activation: RAT, LIVER, S-9, AROCLOR 1254, Method: STANDARD PLATE
[16] = Test System: MOUSE LYMPHOMA, Strain/Indicator: L5178Y (TK+/TK-), Metabolic Activation: RAT, LIVER, S-9, AROCLOR 1254, Method: SUSPENSION/PLATE

CC(C)=O
mutagenic call (End Point: IN VITRO CHROMOSOMAL ABERRATIONS, Test System: CHO-LB CELLS, Metabolic Activation: NONE): inactive; negative
mutagenic call (End Point: IN VITRO CHROMOSOMAL ABERRATIONS, Test System: CHO-LB CELLS, Metabolic Activation: RAT, LIVER, S-9, AROCLOR 1254): inactive; negative
mutagenic call (Test System: AMES SALMONELLA TYPHIMURIUM, Strain/Indicator: TA97, Metabolic Activation: HAMSTER, LIVER, S-9, AROCLOR 1254 (10 OR 30%), Method: PREINCUBATION): inactive; negative
mutagenic call (Test System: AMES SALMONELLA TYPHIMURIUM, Strain/Indicator: TA97, Metabolic Activation: NONE, Method: PREINCUBATION): inactive; negative
mutagenic call (Test System: AMES SALMONELLA TYPHIMURIUM, Strain/Indicator: TA97, Metabolic Activation: RAT, LIVER, S-9, AROCLOR 1254 (10 OR 30%), Method: PREINCUBATION): inactive; negative
mutagenic call (Test System: AMES SALMONELLA TYPHIMURIUM, Strain/Indicator: TA97, Metabolic Activation: RAT, LIVER, S-9, AROCLOR 1254, Method: PREINCUBATION): inactive; negative
mutagenic call (Test System: AMES SALMONELLA TYPHIMURIUM, Strain/Indicator: TA98, Metabolic Activation: HAMSTER, LIVER, S-9, AROCLOR 1254 (10 OR 30%), Method: PREINCUBATION): inactive; negative
mutagenic call (Test System: AMES SALMONELLA TYPHIMURIUM, Strain/Indicator: TA98, Metabolic Activation: NONE, Method: PREINCUBATION): inactive; negative
mutagenic call (Test System: AMES SALMONELLA TYPHIMURIUM, Strain/Indicator: TA98, Metabolic Activation: RAT, LIVER, S-9, AROCLOR 1254 (10 OR 30%), Method: PREINCUBATION): inactive; negative
mutagenic call (Test System: AMES SALMONELLA TYPHIMURIUM, Strain/Indicator: TA100, Metabolic Activation: HAMSTER, LIVER, S-9, AROCLOR 1254 (10 OR 30%), Method: PREINCUBATION): inactive; negative
mutagenic call (Test System: AMES SALMONELLA TYPHIMURIUM, Strain/Indicator: TA100, Metabolic Activation: NONE, Method: PREINCUBATION): inactive; negative
mutagenic call (Test System: AMES SALMONELLA TYPHIMURIUM, Strain/Indicator: TA100, Metabolic Activation: RAT, LIVER, S-9, AROCLOR 1254 (10 OR 30%), Method: PREINCUBATION): inactive; negative
mutagenic call (Test System: AMES SALMONELLA TYPHIMURIUM, Strain/Indicator: TA102, Metabolic Activation: NONE, Method: PREINCUBATION): inactive; negative
mutagenic call (Test System: AMES SALMONELLA TYPHIMURIUM, Strain/Indicator: TA102, Metabolic Activation: RAT, LIVER, S-9, AROCLOR 1254, Method: PREINCUBATION): inactive; negative
mutagenic call (Test System: AMES SALMONELLA TYPHIMURIUM, Strain/Indicator: TA1535, Metabolic Activation: HAMSTER, LIVER, S-9, AROCLOR 1254 (10 OR 30%), Method: PREINCUBATION): inactive; negative
mutagenic call (Test System: AMES SALMONELLA TYPHIMURIUM, Strain/Indicator: TA1535, Metabolic Activation: NONE, Method: PREINCUBATION): inactive; negative
mutagenic call (Test System: AMES SALMONELLA TYPHIMURIUM, Strain/Indicator: TA1535, Metabolic Activation: RAT, LIVER, S-9, AROCLOR 1254 (10 OR 30%), Method: PREINCUBATION): inactive; negative
mutagenic call (Test System: AMES SALMONELLA TYPHIMURIUM, Strain/Indicator: TA1537, Metabolic Activation: HAMSTER, LIVER, S-9, AROCLOR 1254 (30%), Method: PREINCUBATION): inactive; negative
mutagenic call (Test System: AMES SALMONELLA TYPHIMURIUM, Strain/Indicator: TA1537, Metabolic Activation: NONE, Method: PREINCUBATION): inactive; negative
mutagenic call (Test System: AMES SALMONELLA TYPHIMURIUM, Strain/Indicator: TA1537, Metabolic Activation: RAT, LIVER, S-9, AROCLOR 1254 (30%), Method: PREINCUBATION): inactive; negative

O=C(O)/C=C/c1ccc(O)c(O)c1
mutagenic call [1]: inactive; negative
mutagenic call [2]: inactive; negative
mutagenic call [3]: inactive; negative
mutagenic call [4]: inactive; negative
mutagenic call [5]: inactive; negative
mutagenic call [6]: inactive; negative
mutagenic call [7]: inactive; negative
mutagenic call [8]: inactive; negative
mutagenic call [9]: inactive; negative
mutagenic call [10]: inactive; negative
mutagenic call [11]: inactive; negative
mutagenic call [12]: inactive; negative
mutagenic call [13]: inactive; negative
mutagenic call [14]: inactive; negative
mutagenic call [15]: inactive; negative
mutagenic call (Test System: MOUSE LYMPHOMA, Strain/Indicator: L5178Y (TK+/TK-), Metabolic Activation: NONE, Method: SUSPENSION/PLATE): active; positive. reevaluation of results: positive
mutagenic call [16]: inactive; negative; reevaluation of results: negative

Nc1ccc(-c2ccc(N)c([N+](=O)[O-])c2)cc1[N+](=O)[O-]
mutagenic call (Test System: AMES SALMONELLA TYPHIMURIUM, Strain/Indicator: TA98(1,8-DNP6), Metabolic Activation: NONE, Method: STANDARD PLATE): inactive; negative
mutagenic call (Test System: AMES SALMONELLA TYPHIMURIUM, Strain/Indicator: TA98(1,8-DNP6), Metabolic Activation: S-9, Method: STANDARD PLATE): active; positive
mutagenic call [2]: active; positive
mutagenic call (Test System: AMES SALMONELLA TYPHIMURIUM, Strain/Indicator: TA98, Metabolic Activation: S-9, Method: STANDARD PLATE): active; positive
mutagenic call [5]: inactive; negative
mutagenic call (Test System: AMES SALMONELLA TYPHIMURIUM, Strain/Indicator: TA100, Metabolic Activation: S-9, Method: STANDARD PLATE): active; positive

C/C=N/O
mutagenic call [1]: inactive; negative
mutagenic call [2]: inactive; negative
mutagenic call [3]: inactive; negative
mutagenic call [4]: inactive; negative
mutagenic call [5]: inactive; negative
mutagenic call [6]: inactive; negative
mutagenic call (Test System: AMES SALMONELLA TYPHIMURIUM, Strain/Indicator: TA102, Metabolic Activation: RAT, LIVER, S-9, PHENOBARBITAL AND 5,6-BENZOFLAVONE, Method: STANDARD PLATE): inactive; negative
mutagenic call [7]: inactive; negative
mutagenic call [8]: inactive; negative
mutagenic call [9]: inactive; negative
mutagenic call [10]: inactive; negative
mutagenic call [11]: inactive; negative
mutagenic call [12]: inactive; negative
mutagenic call [13]: inactive; negative
mutagenic call [14]: inactive; negative
mutagenic call [15]: inactive; negative
mutagenic call (Test System: AMES SALMONELLA TYPHIMURIUM, Strain/Indicator: TA2638, Metabolic Activation: RAT, LIVER, S-9, PHENOBARBITAL AND 5,6-BENZOFLAVONE, Method: STANDARD PLATE): inactive; negative
mutagenic call (Test System: E. COLI, Strain/Indicator: WP2 (PKM101), Metabolic Activation: RAT, LIVER, S-9, PHENOBARBITAL AND 5,6-BENZOFLAVONE, Method: STANDARD PLATE): inactive; negative
mutagenic call (Test System: E. COLI, Strain/Indicator: WP2 UVRA (PKM101), Metabolic Activation: RAT, LIVER, S-9, PHENOBARBITAL AND 5,6-BENZOFLAVONE, Method: STANDARD PLATE): inactive; negative
mutagenic call [16]: active; positive. reevaluation of results: inconclusive
mutagenic call (Test System: Mouse lymphoma, Strain/Indicator: L5178Y (tk+tk-), Metabolic Activation: None, Method: Suspension/plate): inactive; negative
mutagenic call (Test System: Mouse lymphoma, Strain/Indicator: L5178Y (tk+tk-), Metabolic Activation: Rat, Liver, S-9, Aroclor 1254, Method: Suspension/plate): active; inconclusive (previously evaluated positive)

Source: PubChem BioAssay AID1259407 (Chemical Carcinogenesis Research Information System (CCRIS), 2018)
